Data on two molecules can be found in article PMC10110569, “Structure and mechanism of the alkane-oxidizing enzyme AlkB” (Nature Communications, 2023).

Test [1] deals with T1, FtAlkB (Fontimonas thermophila, UniProt A0A1I2KHB9).
T1 construct: gene SAMN04488120_1209; residues 4-399, codon optimized, pRSF vector, E. coli BL21 (DE3), 3C protease digestion (tag cut), DDM-solubilized; 45 kD; cryo-EM with nanobody AP32; lysate assays with AlkG and AlkT as redox partners
T1 sequence (A0A1I2KHB9 4-399): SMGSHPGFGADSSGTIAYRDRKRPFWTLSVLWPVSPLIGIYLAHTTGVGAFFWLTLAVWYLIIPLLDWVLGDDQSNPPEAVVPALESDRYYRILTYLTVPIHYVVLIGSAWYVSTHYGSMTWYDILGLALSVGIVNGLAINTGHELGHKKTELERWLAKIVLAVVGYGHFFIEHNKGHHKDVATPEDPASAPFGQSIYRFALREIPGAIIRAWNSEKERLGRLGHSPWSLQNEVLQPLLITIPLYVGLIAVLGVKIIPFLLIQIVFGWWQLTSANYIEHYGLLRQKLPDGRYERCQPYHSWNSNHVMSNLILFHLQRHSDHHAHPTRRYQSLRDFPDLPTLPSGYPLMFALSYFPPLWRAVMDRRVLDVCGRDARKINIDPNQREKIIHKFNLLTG
The test is described as follows: GC-MS alkane hydroxylation assay, purified enzyme. The format is biochemical. Conditions: purified AlkG, maize ferredoxin reductase, NADPH; 37 °C.

Test [2] addresses T2, Fontimonas thermophila alkane monooxygenase AlkB (FtAlkB), amino acids 4-399 (Fontimonas thermophila).
T2 construct: Alkane monooxygenase AlkB of Fontimonas thermophila, amino acids 4-399, codon optimized, in pRSF vector; Membrane protein kept in DDM (0.02% in SEC buffer); source: E. coli BL21 (DE3), solubilized in 1% DDM, purified (cobalt resin, 3C protease digestion, SEC)
T2 chain: T1 sequence (A0A1I2KHB9 4-399)
The test is described as follows: cryo-EM structure; FtAlkB-nanobody AP32 complex in 20 mM HEPES pH 7.4, 150 mM NaCl, 0.02% DDM; single-particle cryo-EM, 3.59 Å for FtAlkB-nanobody (3.45 Å with a mask on FtAlkB only). Conditions: both partners purified.

Take `CCCCCCCC` [octane]: the “GC-MS alkane hydroxylation assay, purified enzyme” value in test [1] was “FtAlkB displayed robust alkane hydroxylase activities on a model alkane octane”.

B1: Nanobody AP32 (anti-FtAlkB nanobody) (VHH)
VHH: QVQLQESGGGLVQAGGSLRLSCAASGTISRYWTMGWYRQAPGKERELVAGISEGGSTNYADSVKGRFTISRDNAKNTVYLQMNSLKPEDTAVYYCAVTYRGPWFNRDPHYYWGQGTQVTVSS
notes: Synthetic nanobody from a library after three runs of selection; the model was started from the nanobody of PDB 7SL8 with the CDRs rebuilt, so 7SL8 is not this nanobody; also called FtAlkB-specific nanobody; source: E. coli BL21 (DE3), purified
With B1, the binding result in test [2] is listed as “binds”.
